Results reported in paper PMC4104174 (Journal of the American Chemical Society, 2014).
Read-outs that look alike come from different tables or passages of the source.

Experiments:
hCAII = conditions: cited from earlier work
[1] = free ligand acidity; cited from earlier work
[2] = molecular target: human carbonic anhydrase II (hCAII) (Homo sapiens, UniProt P00918); experiment: hCAII activity assay; assay type: biochemical

| Ki [2] [mM] | Molecule | pKa [1] | other results |
| --- | --- | --- | --- |
| 0.65 ± 0.06 | Cc1cc(=S)c(O)co1 [ATM, 5-hydroxy-2-methyl-4H-pyran-4-thione] | 7.64 | fold more potent (Ki) than TM and TPMA ([2]; ATM vs TM and TPMA, hCAII): roughly 2 fold |
| 1.4 ± 0.2 | Cc1occc(=S)c1O [TM, 3-hydroxy-2-methyl-4H-pyran-4-thione] | 8.06 | – |

The next lines start with the molecule.

| Molecule | Ki [2] [mM] | pKa [1] | other results |
| --- | --- | --- | --- |
| 2-mercaptopyridine-N-oxide [1,2-HOPTO] | – | – | Ki (hCAII; previously reported): 850 µM |
| Oc1coccc1=S [TPMA, 3-hydroxy-4H-pyran-4-thione] | 1.1 ± 0.2 | – | – |
| Oc1ccccc1S [2-MP, 2-mercaptophenol] | – | – | Ki (hCAII): 3 ± 0.7 µM |
